Source: publication PMC4467469 (Methods in molecular biology (Clifton, N.J.), 2012)
pKd: −log10 of the molar value.

Target: Cdc42 (Homo sapiens, UniProt P60953)
Experiment: equilibrium binding by flow cytometry on beads

Chain of Cdc42 (P60953 1-188): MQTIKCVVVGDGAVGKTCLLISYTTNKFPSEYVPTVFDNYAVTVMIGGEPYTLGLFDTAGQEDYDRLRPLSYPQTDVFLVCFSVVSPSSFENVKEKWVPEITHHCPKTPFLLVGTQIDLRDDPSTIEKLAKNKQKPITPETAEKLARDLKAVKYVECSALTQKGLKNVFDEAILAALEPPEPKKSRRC

- pKd: 9.22
Compound: Cc1cc(C)n2c1C=C1C=CC(CCC(=O)NCCNC(=O)OC3C(COP(=O)(O)OP(=O)(O)OP(=O)(O)O)OC(n4cnc5c(=O)[nH]c(N)nc54)C3O)=[N+]1[B-]2(F)F (stereo not shown) [BODIPY-FL-GTP]
